Measured values published in US10077261B2, “Imidazolin-5-one derivative useful as FASN inhibitors for the treatment of cancer” (Janssen Pharmaceutica NV, priority 2012, dated 2018).

Tests used:
[1] = target: Fatty Acid Synthase Keto-reductase Domain (FASN KR) (Homo sapiens, UniProt P49327); assay: Fatty Acid Synthase keto-reductase domain (FASN KR) inhibition, NADPH oxidation at 340 nm
Protocol: After 20 minutes incubation at room temperature the plate was measured again (T2).
The decrease in absorbance was calculated as (Absorbance before incubation T1)−(Absorbance following incubation T2).
A plot of Controlmin versus test compound concentration was fitted to a 4-parameter logistic curve using a non-linear least squares regression method.

A2780 ovarian cells [2] = assay: A2780 ovarian cell proliferation assay in lipid reduced medium, without palmitate (MTT); format: cell-based; settings: Homo sapiens, A2780, 96 h; read-out: pIC50 A2780 Ovarian Cell, Without Palmitate (converted)
A2780 ovarian cells [3] = assay: A2780 ovarian cell proliferation assay in lipid reduced medium, with palmitate (MTT); format: cell-based; settings: Homo sapiens, A2780, 96 h; read-out: pIC50 A2780 Ovarian Cell, With Palmitate (converted)
In short: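 Seeded cells were switched next day to lipid-reduced serum, exposed to compound and 25 μM palmitate complexed with fatty-acid-free BSA, and incubated 96 h. Proliferation was then determined by MTT absorbance at 544 nm, with a best-fit curve of signal against concentration.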

[4] = target: T1, hFASN enzyme (full length) (Homo sapiens, UniProt P49327); assay: Fatty Acid Synthase (FASN) inhibition scintillation proximity assay; format: biochemical; settings: for inhibition at 10 µM: read-out: Human FASN % inhibition @ 10 μM, 10 μM test compound; for IC50: read-out: Human FASN pIC50 (converted)
T1 construct: 10 μL hFASN enzyme (full length, 300 ng, purified in house); made in house
T1 sequence (P49327 whole entry): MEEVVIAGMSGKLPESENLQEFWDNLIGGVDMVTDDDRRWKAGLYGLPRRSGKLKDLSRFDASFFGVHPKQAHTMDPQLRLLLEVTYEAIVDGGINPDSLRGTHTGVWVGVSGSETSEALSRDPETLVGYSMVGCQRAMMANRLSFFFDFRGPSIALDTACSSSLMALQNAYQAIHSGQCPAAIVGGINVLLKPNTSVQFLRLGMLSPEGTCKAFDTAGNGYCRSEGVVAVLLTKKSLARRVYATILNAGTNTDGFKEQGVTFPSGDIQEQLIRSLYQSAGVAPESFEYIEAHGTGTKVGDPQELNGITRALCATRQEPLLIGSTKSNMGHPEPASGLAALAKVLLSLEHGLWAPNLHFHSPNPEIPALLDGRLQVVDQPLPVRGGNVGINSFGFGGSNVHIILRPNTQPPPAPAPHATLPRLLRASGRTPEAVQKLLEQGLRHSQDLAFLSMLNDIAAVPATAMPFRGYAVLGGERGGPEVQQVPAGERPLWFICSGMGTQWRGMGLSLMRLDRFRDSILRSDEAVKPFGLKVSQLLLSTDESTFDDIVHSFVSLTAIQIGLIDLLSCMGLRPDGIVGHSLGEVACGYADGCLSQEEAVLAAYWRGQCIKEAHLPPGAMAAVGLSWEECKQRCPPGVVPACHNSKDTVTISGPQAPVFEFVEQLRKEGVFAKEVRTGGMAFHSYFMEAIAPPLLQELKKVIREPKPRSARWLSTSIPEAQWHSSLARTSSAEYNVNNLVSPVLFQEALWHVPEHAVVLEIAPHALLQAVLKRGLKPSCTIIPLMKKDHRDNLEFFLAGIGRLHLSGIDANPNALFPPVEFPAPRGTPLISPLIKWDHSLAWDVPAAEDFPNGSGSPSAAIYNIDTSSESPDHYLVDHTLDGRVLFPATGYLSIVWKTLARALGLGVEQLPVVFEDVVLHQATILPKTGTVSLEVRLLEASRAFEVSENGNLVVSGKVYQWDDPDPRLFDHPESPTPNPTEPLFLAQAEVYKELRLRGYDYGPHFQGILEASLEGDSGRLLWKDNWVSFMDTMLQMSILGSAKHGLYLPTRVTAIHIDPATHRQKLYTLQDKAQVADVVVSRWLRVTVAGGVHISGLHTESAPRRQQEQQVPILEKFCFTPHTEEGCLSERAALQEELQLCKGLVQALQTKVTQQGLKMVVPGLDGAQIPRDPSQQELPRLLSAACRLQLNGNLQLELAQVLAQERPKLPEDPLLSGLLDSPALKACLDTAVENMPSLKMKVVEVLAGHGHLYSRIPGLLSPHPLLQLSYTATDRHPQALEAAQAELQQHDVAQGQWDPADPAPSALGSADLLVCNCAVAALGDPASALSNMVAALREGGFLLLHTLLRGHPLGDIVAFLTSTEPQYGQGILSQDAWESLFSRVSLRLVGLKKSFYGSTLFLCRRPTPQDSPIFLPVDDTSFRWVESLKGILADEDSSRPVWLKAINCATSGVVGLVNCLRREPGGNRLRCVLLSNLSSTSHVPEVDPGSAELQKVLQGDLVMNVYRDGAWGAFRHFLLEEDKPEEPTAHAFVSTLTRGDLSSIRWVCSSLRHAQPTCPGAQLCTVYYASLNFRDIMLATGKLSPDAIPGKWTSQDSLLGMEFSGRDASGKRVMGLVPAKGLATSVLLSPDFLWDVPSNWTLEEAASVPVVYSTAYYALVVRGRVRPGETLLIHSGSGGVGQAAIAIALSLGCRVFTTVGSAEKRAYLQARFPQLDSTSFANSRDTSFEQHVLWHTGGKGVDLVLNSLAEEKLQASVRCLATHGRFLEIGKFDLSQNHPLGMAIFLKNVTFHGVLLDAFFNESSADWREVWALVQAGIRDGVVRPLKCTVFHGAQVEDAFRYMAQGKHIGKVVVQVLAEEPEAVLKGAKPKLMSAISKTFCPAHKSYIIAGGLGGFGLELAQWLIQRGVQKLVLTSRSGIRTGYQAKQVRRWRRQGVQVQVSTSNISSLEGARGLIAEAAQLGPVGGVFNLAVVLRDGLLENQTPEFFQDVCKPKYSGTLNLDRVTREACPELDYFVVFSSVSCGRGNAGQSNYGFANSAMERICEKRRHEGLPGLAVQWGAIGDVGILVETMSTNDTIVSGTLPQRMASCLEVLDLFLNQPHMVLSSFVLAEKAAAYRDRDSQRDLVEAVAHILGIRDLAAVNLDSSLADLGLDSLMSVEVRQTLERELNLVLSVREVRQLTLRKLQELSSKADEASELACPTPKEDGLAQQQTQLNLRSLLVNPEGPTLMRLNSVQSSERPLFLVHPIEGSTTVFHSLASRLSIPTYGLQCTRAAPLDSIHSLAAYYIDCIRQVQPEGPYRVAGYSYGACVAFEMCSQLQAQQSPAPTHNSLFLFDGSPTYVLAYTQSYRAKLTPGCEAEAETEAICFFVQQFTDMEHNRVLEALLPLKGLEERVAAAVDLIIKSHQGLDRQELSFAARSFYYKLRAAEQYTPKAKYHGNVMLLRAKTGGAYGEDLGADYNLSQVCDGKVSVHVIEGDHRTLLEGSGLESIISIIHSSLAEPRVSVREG
In short: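 Purified full-length hFASN (300 ng) converts ^3H-acetyl-CoA plus malonyl-CoA to ^3H-palmitate in 100 mM KH2PO4 pH 7.5, 1 mM DTT; compounds tested at 0.01–30 μM. Product captured on streptavidin imaging beads and read by LEADseeker at 610 nm after ≥24 h; 4-parameter logistic fit versus controls.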

Chain of Fatty Acid Synthase Keto-reductase Domain (FASN KR) (P49327 whole entry, the tested form may be a part): as the sequence (P49327 whole entry) above

Row | IC50 [1] | IC50 (A2780 ovarian cells [2]) | IC50 (A2780 ovarian cells [3]) | inhibition at 10 µM [4] | IC50 [4] | SMILES
1 | 1200 nM | 3720 nM | > 10000 nM | 105% | 214 nM | O=C(C1CC1)N1CC[C@@H](CN2C(=O)C3(CCCC3)N=C2c2ccc(-c3ccc(Cl)cc3)cc2)C1 [compound 82]
2 | 2040 nM | ~2880 nM | > 10000 nM | 97.9% | 355 nM | COc1ccc(-c2ccc(C3=NC4(CCCC4)C(=O)N3C[C@@H]3CCN(C(=O)C4CC4)C3)cc2)cc1 [compound 85, 3-{[(3R)-1-(Cyclopropylcarbonyl)pyrrolidin-3-yl]methyl}-2-(4′-methoxybiphenyl-4-yl)-1,3-diazaspiro[4.4]non-1-en-4-one]
3 | 77.6 nM | 45.7 nM | > 10000 nM | 111% | 51.3 nM | O=C(C1CC1)N1CC[C@@H](CN2C(=O)C3(CCCC3)N=C2c2ccc(-c3cccc4[nH]ncc34)cc2)C1 [compound 92, 3-{[(3R)-1-(Cyclopropylcarbonyl)pyrrolidin-3-yl]methyl}-2-[4-(1H-indazol-4-yl)phenyl]-1,3-diazaspiro[4.4]non-1-en-4-one]
4 | 263 nM | ~2090 nM | > 10000 nM | 116% | 75.9 nM | Cc1cc(-c2ccc(Cl)cc2)ccc1C1=NC2(CCCC2)C(=O)N1C[C@@H]1CCN(C(=O)C2CC2)C1 [compound 93, 2-(4′-Chloro-3-methylbiphenyl-4-yl)-3-{[(3R)-1-(cyclopropylcarbonyl)pyrrolidin-3-yl]methyl}-1,3-diazaspiro[4.4]non-1-en-4-one]

The remaining lines, values behind:

Row | SMILES | IC50 [1] | IC50 (A2780 ovarian cells [2]) | IC50 (A2780 ovarian cells [3]) | inhibition at 10 µM [4] | IC50 [4]
5 | O=C(C1CC1)N1CCC(CN2C(=O)C3(CCCC3)N=C2c2ccc(-c3ccc4cnccc4c3)cc2)CC1 [compound 77, 3-{[1-(Cyclopropylcarbonyl)piperidin-4-yl]methyl}-2-(4-isoquinolin-6-ylphenyl)-1,3-diazaspiro[4.4]non-1-en-4-one] | 871 nM | 661 nM | > 10000 nM | 103% | 174 nM
6 | O=C(C1CC1)N1CC(CN2C(=O)C3(CCCC3)N=C2c2ccc(-c3ccc4cnccc4c3)cc2)C1 [compound 79, 3-{[1-(Cyclopropylcarbonyl)azetidin-3-yl]methyl}-2-(4-isoquinolin-6-ylphenyl)-1,3-diazaspiro[4.4]non-1-en-4-one] | 324 nM | 145 nM | > 10000 nM | 108% | 61.7 nM
7 | O=C(C1CC1)N1CC(CN2C(=O)C3(CCCC3)N=C2c2ccc(-c3ccc4occc4c3)cc2)C1 [compound 80, 2-[4-(1-Benzofuran-5-yl)phenyl]-3-{[1-(cyclopropylcarbonyl)azetidin-3-yl]methyl}-1,3-diazaspiro[4.4]non-1-en-4-one] | 1480 nM | 2290 nM | > 10000 nM | 92.1% | 437 nM
8 | CN1CCC2(CC1)N=C(c1ccc(-c3ccc4[nH]ccc4c3)cc1)N(C[C@@H]1CCN(C(=O)C3CC3)C1)C2=O [compound 81, (R)-2-(4-(1H-Indol-5-yl)phenyl)-3-((1-(cyclopropanecarbonyl)pyrrolidin-3-yl)methyl)-8-methy-1,3,8-triazaspiro[4.5]dec-1-en-4-one] | 186 nM | 102 nM | > 6170 nM | 109% | 91.2 nM
9 | C=CC(=O)N1CC[C@@H](CN2C(=O)C3(CCN(Cc4ccccc4)CC3)N=C2c2ccc(-c3ccc4occc4c3)cc2)C1 [compound 90, 3-{[(3R)-1-Acryloylpyrrolidin-3-yl]methyl}-2-[4-(1-benzofuran-5-yl)phenyl]-8-benzyl-1,3,8-triazaspiro[4.5]dec-1-en-4-one] | 1350 nM | 6310 nM | > 10000 nM | 101% | 309 nM
